Measurements reported in patent US20020086278A1, “CHROMOGENIC MEDIA CONTAINING BLOOD OR HEMIN” (priority 1999, published 2002).
Like-named read-outs stand apart in the source and are kept apart here.

What was measured:
Format in all cases: cell-based
[1] = tested on: Citrobacter freundii (cifr); experiment: Example 3: colony color on chromogenic TSA II with 5% sheep blood (chromogen in medium); conditions: for Colony Color: CO2
[2] = tested on: Streptococcus pneumoniae 6303; experiment: Example 1: growth and colony color on plates surface-spread with chromogen
[3] = tested on: S. milleri (stmi); experiment: Example 3: colony color on chromogenic TSA II with 5% sheep blood (chromogen in medium)
[4] = tested on: S pyogenes (stpy); experiment: as above; conditions: for Colony Color: 21 h; for Colony Color on Various Chromogenic TSA II with 5% Sheep Blood: 18 h
[5] = tested on: Branhamella catarrhalis (brca); experiment: as above; conditions: for Colony Color: CO2
[6] = tested on: Staphylococcus aureus (stau); experiment: as above
[7] = tested on: S. pneumoniae (stpn); experiment: as above; conditions: for Colony Color on Various Chromogenic TSA II with 5% Sheep Blood: 18 h
[8] = tested on: Serratia marcescens (sema); experiment: as above; conditions: for Colony Color: sema 13880, CO2
[9] = tested on: Streptococcus agalactiae (stag); experiment: as above
[10] = tested on: E. faecium (enfu); experiment: as above; conditions: for Colony Color: enfu 49032
[11] = tested on: Candida albicans (caal); experiment: as above
[12] = tested on: Klebsiella pneumoniae (klpn); experiment: as above
[13] = tested on: Entercoccus faecalis (enfa); experiment: as above
[14] = tested on: milu 9341; experiment: as above
[15] = tested on: Pseudomonas aeruginosa (psae); experiment: as above; conditions: for Colony Color: CO2
[16] = tested on: Salmonella spp. (sasp); conditions: for Colony Color: CO2
[17] = tested on: Aeromonas hydrophilia (aehy); experiment: Example 3: colony color on chromogenic TSA II with 5% sheep blood (chromogen in medium); conditions: for Colony Color: CO2
[18] = tested on: E. coli (non-O157) (esco)
[19] = chromogenic TSA II with 5% Sheep Blood, 0.1 g/l, 2 strains tested
[20] = chromogenic TSA II with 5% Sheep Blood, 0.1 g/l
[21] = chromogenic TSA II with 5% Sheep Blood, 0.1 g/l, 6 strains tested
[22] = chromogenic TSA II with 5% Sheep Blood, 0.1 g/l, 1 strain tested
[23] = chromogenic TSA II with 5% Sheep Blood, 0.1 g/l, 3 strains tested

Q: What does the source list for CC(=O)N[C@H]1[C@H](Oc2c[nH]c3ccc(Br)c(Cl)c23)O[C@H](CO)[C@H](O)[C@@H]1O [X-Acglmn, 5-Br-4-Cl-3-indolyl-N-Acetyl-β-D-galactosaminide]?
A: Colony Color (Summary) [1, 19]: 0; Colony Color ([1]; cifr 8454, 18 h): 0; Colony Color ([1]; cifr 8454, 21 h): 0; Colony Color ([1]; cifr 33128, 18 h): 0; Colony Color ([1]; cifr 33128, 21 h): 0; Substrates Producing Color ([2]; Summary of Table I, S. pneumoniae 6303): X-Acglmn (TSA II; Color ([2]; TSA II 5SB, S. pneu: 6303): blue; Growth vs. control [3, 20]: <grth; Colony Color (Summary) [3, 19]: 0; Colony Color on Various Chromogenic TSA II with 5% Sheep Blood ([3]; stmi 6242, CO2, 18 h): 0; Colony Color ([3]; stmi 6249, air, 21 h): 0; Growth vs. control [4, 20]: <grth; Colony Color (Summary) [4, 21]: 0; Colony Color ([4]; stpy 1027, CO2): 0; Colony Color ([4]; stpy 1028, CO2): 0; Colony Color ([4]; stpy 1029, CO2): 0; Colony Color ([4]; stpy 1030, CO2): 0; Colony Color ([4]; stpy 19615, CO2): 0; Colony Color ([4]; stpy 19615, air): 0; Colony Color ([4]; stpy 49117, CO2): 0; Colony Color ([4]; stpy 49117, air): 0; Colony Color on Various Chromogenic TSA II with 5% Sheep Blood ([4]; stpy 51339, CO2): 0; Colony Color ([4]; stpy 51339, CO2): 0; Colony Color ([4]; stpy 51339, air): 0; Colony Color on Various Chromogenic TSA II with 5% Sheep Blood ([4]; stpy t027, CO2): 0; Colony Color on Various Chromogenic TSA II with 5% Sheep Blood ([4]; stpy t028, CO2): 0; Colony Color on Various Chromogenic TSA II with 5% Sheep Blood ([4]; stpy t029, CO2): 0; Colony Color on Various Chromogenic TSA II with 5% Sheep Blood ([4]; stpy t030, CO2): 0; Colony Color ([5]; brca 25238, 18 h): 0; Colony Color ([5]; brca 25238, 21 h): 0; Colony Color ([5]; brca 25240, 21 h): 0; Colony Color (Summary) [5, 19]: 0; Colony Color (Summary) ([6]; chromogenic TSA II with 5% Sheep Blood, 0.1 g/l, 5 strains tested): 0; Colony Color ([6]; stau 1006, CO2, 21 h): 0; Colony Color ([6]; stau 1007, CO2, 21 h): 0; Colony Color ([6]; stau 1008, CO2, 21 h): 0; Colony Color ([6]; stau 1009, CO2, 21 h): 0; Colony Color ([6]; stau 25923, CO2, 18 h): 0; Colony Color ([6]; stau 25923, CO2, 24 h): 0; Colony Color ([6]; stau 25923, air, 24 h): 0; Colony Color on Various Chromogenic TSA II with 5% Sheep Blood ([6]; stau t006, CO2, 18 h): 0; Colony Color on Various Chromogenic TSA II with 5% Sheep Blood ([6]; stau t007, CO2, 18 h): 0; Colony Color on Various Chromogenic TSA II with 5% Sheep Blood ([6]; stau t008, CO2, 18 h): 0; Colony Color on Various Chromogenic TSA II with 5% Sheep Blood ([6]; stau t009, CO2, 18 h): 0; Growth vs. control [7, 20]: <grth; Colony Color (Summary) [7, 21]: 0; Colony Color ([7]; stpn 1259, CO2, 21 h): 0; Colony Color ([7]; stpn 1260, CO2, 21 h): 0; Colony Color ([7]; stpn 1331, CO2, 21 h): 0; Colony Color ([7]; stpn 1628, CO2, 21 h): 0; Colony Color ([7]; stpn 6303, CO2, 24 h): 0; Colony Color ([7]; stpn 6303, air, 24 h): 0; Colony Color ([7]; stpn 6305, CO2, 24 h): 0; Colony Color ([7]; stpn 6305, air, 24 h): 0; Colony Color on Various Chromogenic TSA II with 5% Sheep Blood ([7]; stpn t259, CO2): 0; Colony Color on Various Chromogenic TSA II with 5% Sheep Blood ([7]; stpn t260, CO2): 0; Colony Color on Various Chromogenic TSA II with 5% Sheep Blood ([7]; stpn t331, CO2): drkr < muc; Colony Color on Various Chromogenic TSA II with 5% Sheep Blood ([7]; stpn t628, CO2): 0; Colony Color (Summary) [8, 22]: +; Colony Color ([8]; 18 h): gb; Colony Color ([8]; 21 h): gb; Colony Color (Summary) [9, 23]: 0; Colony Color ([9]; stag 4768, CO2, 21 h): 0; Colony Color ([9]; stag 4768, air, 21 h): 0; Colony Color ([9]; stag 12386, CO2, 21 h): 0; Colony Color ([9]; stag 12386, CO2, 24 h): 0; Colony Color ([9]; stag 12386, air, 24 h): 0; Colony Color (Summary) [10, 22]: +; Colony Color ([10]; CO2, 18 h): lb; Colony Color ([10]; CO2, 21 h): db; Colony Color ([10]; air, 21 h): lb; Colony Color ([11]; caal 10231, CO2, 24 h): gb; Colony Color ([11]; caal 10231, air, 24 h): 0; Colony Color (Summary) [11, 19]: +; Colony Color ([11]; one C. albicans): blue; Colony Color (Summary) [12, 23]: 0; Colony Color ([12]; klpn 13883, CO2, 18 h): 0; Colony Color ([12]; klpn 13883, CO2, 21 h): 0; Colony Color ([12]; klpn 33495, CO2, 18 h): vlgb; Colony Color ([12]; klpn 33495, CO2, 24 h): 0; Colony Color ([12]; klpn 33495, air, 24 h): 0; Colony Color ([12]; klpn 33606, CO2, 18 h): 0; Colony Color ([12]; klpn 33606, CO2, 21 h): 0; Colony Color (Summary) [13, 21]: +; Colony Color ([13]; enfa 597, CO2, 18 h): db; Colony Color ([13]; enfa 597, CO2, 21 h): db; Colony Color ([13]; enfa 10741, CO2, 18 h): db; Colony Color ([13]; enfa 10741, CO2, 21 h): db; Colony Color ([13]; enfa 12953, CO2, 18 h): db; Colony Color ([13]; enfa 12953, CO2, 21 h): db; Colony Color ([13]; enfa 14506, CO2, 18 h): db; Colony Color ([13]; enfa 14506, CO2, 21 h): db; Colony Color ([13]; enfa 29212, CO2, 18 h): db; Colony Color ([13]; enfa 29212, CO2, 21 h): db; Colony Color ([13]; enfa 29212, CO2, 24 h): db; Colony Color ([13]; enfa 29212, air, 24 h): db; Colony Color ([14]; CO2, 18 h): ly; Colony Color ([14]; CO2, 21 h): 0; Colony Color (Summary) [15, 23]: 0; Colony Color ([15]; psae 9027, 18 h): 0; Colony Color ([15]; psae 9027, 21 h): 0; Colony Color ([15]; psae 15442, 18 h): 0; Colony Color ([15]; psae 15442, 21 h): 0; Colony Color ([15]; psae 33607, 18 h): 0; Colony Color ([15]; psae 33607, 21 h): 0; Colony Color (Summary) [16, 19]: 0; Colony Color ([16]; saty 19430, 18 h): 0; Colony Color ([16]; saty 19430, 21 h): 0; Colony Color ([16]; satym 14028, 18 h): 0; Colony Color ([16]; satym 14028, 21 h): 0; Colony Color ([17]; aehy 7965, 18 h): db; Colony Color ([17]; aehy 7965, 21 h): gb; Colony Color ([17]; aehy 7966, 18 h): db; Colony Color ([17]; aehy 7966, 21 h): gb; Colony Color ([17]; aehy 49847, 18 h): db; Colony Color ([17]; aehy 49847, 21 h): gb; Colony Color (Summary) [17, 23]: +; Colony Color (Summary) [18, 23]: 0; Colony Color ([18]; esco 11775, CO2, 18 h): 0; Colony Color ([18]; esco 11775, CO2, 21 h): 0; Colony Color ([18]; esco 25922, CO2, 24 h): 0; Colony Color ([18]; esco 25922, air, 24 h): 0; Colony Color ([18]; esco 33605, CO2, 18 h): 0; Colony Color ([18]; esco 33605, CO2, 21 h): 0
